# Measured values reported in ChEMBL document CHEMBL1201862, “PubChem BioAssay data set” (2004).
# Calls of active or inactive are those of the source.
# What was measured:
# [1] = viability of uninfected HEp-2 cells – cell-based, HTS, cytotoxicity control for RSV inhibitor project, dose response (AID 2410); assay type: functional; details: human respiratory syncytial virus
# [2] = Luminescence Cell-Based Dose Retest to Confirm Inhibitors of Cancer Stem Cells. [Related pubchem assays (depositor defined):AID2717, AID2721]; assay type: functional; details: Homo sapiens
# [3] = biological target: T1, Heat shock factor protein 1 (Mus musculus, UniProt P38532); assay: decrease of HSF1-responsive luciferase luminescence – cell-based, NIH3T3, dose retest, confirmation (AID 2382); assay type: functional;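 note: NIH3T3 fibroblasts with HSF1-driven luciferase reporter stressed by proteasome inhibitor MG132; luminescence from HSF1-driven luciferase expression after 8 hours of MG132 stress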
# T1 sequence (P38532 whole entry): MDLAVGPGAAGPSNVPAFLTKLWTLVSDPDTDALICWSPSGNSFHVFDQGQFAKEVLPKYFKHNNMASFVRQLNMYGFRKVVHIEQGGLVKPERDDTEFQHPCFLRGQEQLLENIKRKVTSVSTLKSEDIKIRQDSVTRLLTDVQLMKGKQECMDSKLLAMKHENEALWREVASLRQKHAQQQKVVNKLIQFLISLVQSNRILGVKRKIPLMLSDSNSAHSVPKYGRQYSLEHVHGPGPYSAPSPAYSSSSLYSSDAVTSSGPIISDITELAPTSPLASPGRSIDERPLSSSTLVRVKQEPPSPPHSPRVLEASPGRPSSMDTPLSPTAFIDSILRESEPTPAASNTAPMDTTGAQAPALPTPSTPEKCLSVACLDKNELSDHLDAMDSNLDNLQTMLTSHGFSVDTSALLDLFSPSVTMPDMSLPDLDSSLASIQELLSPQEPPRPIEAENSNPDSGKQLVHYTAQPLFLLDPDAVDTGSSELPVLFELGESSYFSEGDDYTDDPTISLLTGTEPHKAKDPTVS
# Cytochrome P450 2C9 [4] = biological target: T2, Cytochrome P450 2C9 (Homo sapiens, UniProt P11712)
# [5] = biological target: T3, Corticotropin-releasing factor receptor 2/Corticotropin-releasing factor-binding protein (Homo sapiens, UniProt P24387+Q13324); assay: activators of CRF receptor 2 with binding protein – uHTS hits, confirmation (AID 602473); assay type: functional; details: read-out: EC50_Mean
# T3 sequence (Q13324 whole entry): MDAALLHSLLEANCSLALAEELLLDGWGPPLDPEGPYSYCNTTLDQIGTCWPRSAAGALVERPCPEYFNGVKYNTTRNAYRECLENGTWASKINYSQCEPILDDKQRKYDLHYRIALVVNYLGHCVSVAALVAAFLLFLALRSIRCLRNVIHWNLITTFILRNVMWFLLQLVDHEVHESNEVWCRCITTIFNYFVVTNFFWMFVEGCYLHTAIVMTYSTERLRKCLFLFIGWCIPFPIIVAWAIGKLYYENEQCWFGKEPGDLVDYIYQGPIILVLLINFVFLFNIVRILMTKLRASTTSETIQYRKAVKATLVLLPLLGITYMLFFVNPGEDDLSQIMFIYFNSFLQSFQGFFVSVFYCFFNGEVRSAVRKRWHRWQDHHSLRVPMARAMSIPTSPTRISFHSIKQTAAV
# T3 sequence (P24387 whole entry): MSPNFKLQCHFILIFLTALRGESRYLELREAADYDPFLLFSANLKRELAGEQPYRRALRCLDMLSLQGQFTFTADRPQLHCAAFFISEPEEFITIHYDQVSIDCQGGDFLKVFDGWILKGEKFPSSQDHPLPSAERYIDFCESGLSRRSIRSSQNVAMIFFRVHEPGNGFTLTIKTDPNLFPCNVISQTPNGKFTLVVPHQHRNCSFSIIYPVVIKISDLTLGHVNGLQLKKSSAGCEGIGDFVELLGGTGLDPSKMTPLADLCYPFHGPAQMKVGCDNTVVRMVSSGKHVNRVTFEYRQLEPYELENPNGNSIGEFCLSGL
# [6] = biological target: T3, Corticotropin-releasing factor receptor 2/Corticotropin-releasing factor-binding protein; assay: Dose Response confirmation of uHTS hits for small molecule antagonists of the CRF-binding protein and CRF-R2 receptor complex.; assay type: functional; details: read-out: IC50_Mean
# Cytochrome P450 2C9 [7] = biological target: T2, Cytochrome P450 2C9; remark: listed apart in the source
# [8] = NIH3T3 cell viability loss – ATP luminescence, mouse fibroblasts, counter-screen, dose response (AID 2010); assay type: functional, cell-based;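 note: cells exposed to compound for about 90 hours before reading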
# cells [9] = assay type: functional, cell-based
# cells [10] = assay type: functional, cell-based; remark: listed apart in the source
# INS1 = assay: INS-1E survival protection against cytokine death – cell-based, luminescence, retest, dose response (AID 449756); assay type: functional; details: Rattus norvegicus, INS1;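 note: cell death triggered by IL-1 beta plus TNF-alpha plus IFN-gamma mixture; protective hits raise ATP signal compared with cytokine alone wells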
# [11] = Trypanosoma cruzi growth suppression in host cells – NIH3T3 host cells, beta-gal luminescence, confirmation (AID 2044); assay type: functional, cell-based;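 note: intracellular parasites grown in NIH/3T3 mouse fibroblasts as host cells; luminescent beta-galactosidase reporter signal from transgenic T. cruzi replicating inside host cells; inhibitors lower the luminescence signal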
# [12] = non-specific 3'UTR reporter inhibition in Clone20-Shn3RL – cell-based, Renilla luciferase, cherry-picked, counter-screen for Shn3 inhibitor project, dose response (AID 624133); assay type: functional
# [13] = loss of viability in HepG2 cells – cell-based, CellTiter-Glo, cherry-picked, cytotoxicity control for Shn3 inhibitor project, dose response (AID 624134); assay type: functional
# [14] = reduction of Shn3 3'UTR-driven luciferase in osteoblasts – cell-based, Clone20 osteoblasts, firefly luciferase, cherry-picked, dose response (AID 624132); assay type: functional;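 note: firefly luciferase luminescence from reporter carrying the Shn3 3'UTR in osteoblasts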
# [15] = biological target: T4, Zinc finger protein mex-5 (Caenorhabditis elegans, UniProt Q9XUB2); assay: potency of MEX-5 RNA-binding blockers – biochemical, C. elegans, fluorescence polarization, dose response (AID 1960)
# T4 sequence (Q9XUB2 whole entry): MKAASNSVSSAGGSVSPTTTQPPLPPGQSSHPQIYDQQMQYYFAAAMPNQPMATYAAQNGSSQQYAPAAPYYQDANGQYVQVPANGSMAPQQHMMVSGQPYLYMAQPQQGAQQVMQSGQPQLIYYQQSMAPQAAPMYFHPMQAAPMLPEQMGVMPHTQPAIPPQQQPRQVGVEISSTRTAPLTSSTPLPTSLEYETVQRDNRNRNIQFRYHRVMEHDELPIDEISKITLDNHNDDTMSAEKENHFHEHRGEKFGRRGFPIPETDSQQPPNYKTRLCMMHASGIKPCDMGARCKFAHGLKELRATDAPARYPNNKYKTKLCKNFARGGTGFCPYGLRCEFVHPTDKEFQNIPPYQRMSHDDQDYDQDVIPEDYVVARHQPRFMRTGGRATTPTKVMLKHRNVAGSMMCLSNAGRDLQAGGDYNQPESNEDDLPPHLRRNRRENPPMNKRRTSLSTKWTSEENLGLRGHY
# Streptokinase A = biological target: T5, Streptokinase A (Streptococcus pyogenes serotype M1, UniProt P10520); assay: viability-normalized secreted streptokinase activity reduction – plasminogen activation absorbance, OD405, dose response (AID 1914); assay type: functional, Streptococcus pyogenes M1 GAS;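 note: secreted streptokinase activity via plasminogen activation per viability signal from cell pellet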
# T5 sequence (P10520 whole entry): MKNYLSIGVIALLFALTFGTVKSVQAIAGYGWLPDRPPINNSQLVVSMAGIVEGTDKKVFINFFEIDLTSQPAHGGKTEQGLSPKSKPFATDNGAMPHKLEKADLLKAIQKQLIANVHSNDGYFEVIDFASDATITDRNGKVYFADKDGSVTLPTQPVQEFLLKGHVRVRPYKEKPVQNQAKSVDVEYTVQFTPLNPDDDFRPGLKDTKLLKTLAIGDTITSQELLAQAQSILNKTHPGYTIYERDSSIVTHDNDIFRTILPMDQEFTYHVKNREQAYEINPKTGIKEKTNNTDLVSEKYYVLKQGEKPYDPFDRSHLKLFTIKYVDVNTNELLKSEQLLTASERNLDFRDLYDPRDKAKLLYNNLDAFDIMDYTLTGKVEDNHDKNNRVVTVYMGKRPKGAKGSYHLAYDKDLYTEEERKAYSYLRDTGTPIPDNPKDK
# Streptococcus = assay: GAS UMAA2166 growth inhibition – luminescence, BacTiterGlo, counter-screen for streptokinase expression inhibitor project, dose response (AID 1915); assay type: functional, organism-based;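 note: potency for reduction of bacterial viability or growth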
# [16] = test system: Streptococcus sp. 'group A'; assay: Streptococcus pyogenes SK(-)GAS viability under kanamycin – luminescence, BacTiterGlo, confirmation, counter-screen for streptokinase expression inhibitor project, dose response (AID 1900); assay type: functional, organism-based
# T2 sequence (P11712 whole entry): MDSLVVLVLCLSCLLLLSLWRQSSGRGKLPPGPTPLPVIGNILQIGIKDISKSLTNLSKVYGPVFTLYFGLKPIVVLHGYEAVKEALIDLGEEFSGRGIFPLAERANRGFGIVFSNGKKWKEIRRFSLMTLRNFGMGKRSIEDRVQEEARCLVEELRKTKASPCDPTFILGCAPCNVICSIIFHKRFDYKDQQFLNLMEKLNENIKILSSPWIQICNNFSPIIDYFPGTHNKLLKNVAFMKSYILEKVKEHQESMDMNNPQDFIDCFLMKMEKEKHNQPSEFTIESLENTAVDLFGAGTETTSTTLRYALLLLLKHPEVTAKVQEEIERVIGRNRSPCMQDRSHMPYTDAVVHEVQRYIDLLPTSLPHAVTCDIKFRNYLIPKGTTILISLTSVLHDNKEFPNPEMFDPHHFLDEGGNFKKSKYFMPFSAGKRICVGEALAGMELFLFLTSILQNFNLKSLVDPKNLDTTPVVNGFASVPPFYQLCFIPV
structure (smiles),measurement,setting,value
COc1ccc(C(=O)Nc2ccc(Nc3ccccc3)cc2)cc1[N+](=O)[O-],CC50,[1],12.2 µM (active)
same,AC50,[2],2.69 µM (active)
O=C(COC(=O)Cc1ccsc1)NCC12CC3CC(CC(C3)C1)C2,EC50,[3],> 195 µM (not active)
Cc1ccccc1C(=O)NNC(=O)c1ccc(F)cc1,AC50,Cytochrome P450 2C9 [4],inconclusive
O=C(Nc1ccc(N2CCN(c3ccccc3)CC2)c(F)c1)C1CC1,EC50,[5],> 53 µM (inactive)
same,IC50,[6],> 47.1 µM (inactive)
CC(=O)Nc1ccc(CN2CCC(CO)(CCOc3ccccc3)CC2)cc1,EC50,[3],> 195 µM (not active)
COc1ccc(C)cc1NC(=O)N1CCCc2ccccc21,EC50,[5],> 53 µM (inactive)
same,IC50,[6],> 47.1 µM (inactive)
CCN(CC)C(=O)c1cc2cc([N+](=O)[O-])ccc2s1,EC50,[3],> 195 µM (not active)
same,AC50,Cytochrome P450 2C9 [7],17.8 µM (inconclusive)
Cc1ccc2nc(-c3ccccn3)c(Nc3ccccc3C)n2c1,EC50,[8],5.84 µM (active)
same,EC50,cells [9],> 350 µM (not active)
same,EC50,cells [10],18.6 µM (active)
same,AC50,INS1,6.06 µM (active)
same,EC50,[11],1.74 µM (active)
same,AC50,[2],5.42 µM (active)
OCc1nn2c(c1Br)NC(c1ccccc1)CC2C(F)(F)F (stereo unspecified),EC50,[3],> 195 µM (not active)
CC(C)(C)c1ccc(Oc2ccc(N)cc2)cc1,AC50,[2],1.85 µM (active)
Cc1cc(C)cc(C(=O)Nc2cccnc2Cl)c1,EC50,[5],> 53 µM (inactive)
same,IC50,[6],> 47.1 µM (inactive)
O=C1C=C(c2ccnc3cc(Cl)ccc23)C[C@@H](c2ccc3c(c2)OCO3)C1,AC50,[12],0.312 µM (active)
same,AC50,[13],27.6 µM (active)
same,AC50,[14],1.36 µM (active)
Cc1cccc(N=C(S)NCC(C)CSc2ccc(Cl)cc2)c1 (stereo unspecified),AC50,[2],5.75 µM (active)
COc1ccc(CCN2C(=O)NC(=O)/C(=C\NNC(=O)c3ccncc3)C2=O)cc1OC,EC50,[15],43.7 µM (active)
COC(=O)c1sccc1S(=O)(=O)Nc1ccc(N2CCCCC2)cc1,AC50,INS1,29 µM (active)
O=S(=O)(Nc1ccc(-n2cccc2)cc1)c1ccc(Cl)c(Cl)c1,EC50,Streptokinase A,11.3 µM (inconclusive)
same,EC50,Streptococcus,7.58 µM (active)
same,EC50,[16],7.42 µM (active)
same,AC50,[2],4.84 µM (active)
O=C(NCc1cccnc1)Nc1ccc([N+](=O)[O-])cc1,AC50,INS1,11.8 µM (active)
CCN(CC)S(=O)(=O)c1ccc(C)c(NC(=S)N2CCN(C/C=C/c3ccccc3)CC2)c1,AC50,[12],2.53 µM (active)
same,AC50,[13],67.5 µM (active)
same,AC50,[14],2.55 µM (active)
CCC(C)[C@H](NC(=O)N1CCn2c1nc1ccccc12)C(=O)NCc1ccc(OC)cc1 (stereo partly specified),EC50,[5],> 53 µM (inactive)
same,IC50,[6],> 47.1 µM (inactive)
CCOc1ccc(C2N(c3ccc(F)cc3)C(=O)C3CCCN32)cc1OC (stereo unspecified),EC50,[3],> 195 µM (not active)
COc1ccc(OCC(=O)NNC(=S)NC(=O)c2ccc(Br)o2)cc1,AC50,[12],12.4 µM (active)
same,AC50,[13],> 70 µM (inactive)
same,AC50,[14],5.27 µM (active)
CCCCN(C(=O)c1ccc([N+](=O)[O-])s1)c1c(N)n(CCCC)c(=O)[nH]c1=O,EC50,[3],> 195 µM (not active)
COc1cc(Nc2nc(-c3ccccc3)c3cc(C)ccc3n2)cc(OC)c1OC,AC50,[13],60.2 µM (active)
same,AC50,[14],6.55 µM (active)
same,AC50,[2],5.05 µM (active)
COCc1ccc(CN2CCC(C(=O)Nc3cccc(-c4cscn4)c3)CC2)o1,EC50,[5],> 53 µM (inactive)
same,IC50,[6],> 47.1 µM (inactive)
CC(=O)c1c(N2CCN(CCO)CC2)nc(=S)n(-c2ccccc2)c1C,EC50,[3],> 195 µM (not active)
CC(C)(c1ccccc1)c1ccc(OCCN2CCCC2)cc1,AC50,[2],0.824 µM (active)
COc1cc(C(=O)NC2CCCc3c2cnn3-c2ccccc2F)cc(OC)c1OC (stereo unspecified),AC50,[12],4.13 µM (active)
same,AC50,[13],6.29 µM (active)
same,AC50,[14],0.781 µM (active)
CO/C(O)=C1/C(C)=Nc2c(c(=O)n(C)c(=O)n2C)C1c1cccc(O)c1 (stereo unspecified),EC50,[3],27.8 µM (active)
CCO[C@@H]1OC(C(=O)NCc2ccccc2)=C[C@H](c2ccc3c(c2)OCO3)[C@H]1CCCO,EC50,[3],> 195 µM (not active)
Cc1c(C(=O)C(=O)NCc2cccs2)c2ccccc2n1C,EC50,[3],> 195 µM (not active)
Cc1cc(C)c(NC(=O)c2ccc(CNS(=O)(=O)c3cc(C(F)(F)F)ccc3Cl)cc2)c(C)c1,EC50,[5],> 53 µM (inactive)
same,IC50,[6],> 47.1 µM (inactive)
O=C(Nc1ccc(F)cc1)c1cccnc1,AC50,INS1,14.5 µM (active)
O=[N+]([O-])c1cc(/C=N\O)ccc1Oc1ccc(F)cc1,EC50,[5],> 53 µM (inactive)
same,IC50,[6],24.9 µM (active)
COC(=O)N/N=C(\C)c1cccs1,EC50,[5],> 53 µM (inactive)
same,IC50,[6],> 47.1 µM (inactive)
O=P(/C(=N/O)N1CCOCC1)(N1CCOCC1)N1CCOCC1,EC50,[5],> 53 µM (inactive)
same,IC50,[6],> 47.1 µM (inactive)
COc1ccc(OC)c(-c2cc(C(=O)N/N=C/c3cc(OC)c(OC)cc3OC)c3ccccc3n2)c1,EC50,[3],> 195 µM (not active)
Cc1nn(-c2ccccc2)c(C)c1/C=N/NC(=O)c1cc(-c2ccc(Br)s2)[nH]n1,EC50,Streptokinase A,> 150 µM (not active)
same,EC50,Streptococcus,11.8 µM (active)
same,EC50,[16],7.15 µM (active)
same,AC50,[2],0.434 µM (active)
C/C(=N\NC1=NCCN1)c1ccc(N)c([N+](=O)[O-])c1,EC50,[3],> 195 µM (not active)
O=C(O)COc1ccccc1/C=N/NC(=O)c1ccc2c(c1)OCCO2,EC50,[3],> 195 µM (not active)
